Counter-ions that a name gives are not always drawn.

Our source for the IC50 values is BindingDB's records for doi:10.1021/jm00001a008 (R. W. Johnson Pharmaceutical Research Institute, 1995).

Test [1] deals with T1, Integrin alpha-IIb/beta-3 (Homo sapiens, UniProt P08514+P05106). In words: Inhibition of arachidonic acid-induced platelet aggregation.
Test [2] addresses T1, Integrin alpha-IIb/beta-3. In words: Inhibition of collagen-induced platelet aggregation.
The target of test [3] is T1, Integrin alpha-IIb/beta-3. Nature of the test: Inhibition of thrombin-induced platelet aggregation at 50 uM.

T1 sequence (P05106 27-788 limits assumed): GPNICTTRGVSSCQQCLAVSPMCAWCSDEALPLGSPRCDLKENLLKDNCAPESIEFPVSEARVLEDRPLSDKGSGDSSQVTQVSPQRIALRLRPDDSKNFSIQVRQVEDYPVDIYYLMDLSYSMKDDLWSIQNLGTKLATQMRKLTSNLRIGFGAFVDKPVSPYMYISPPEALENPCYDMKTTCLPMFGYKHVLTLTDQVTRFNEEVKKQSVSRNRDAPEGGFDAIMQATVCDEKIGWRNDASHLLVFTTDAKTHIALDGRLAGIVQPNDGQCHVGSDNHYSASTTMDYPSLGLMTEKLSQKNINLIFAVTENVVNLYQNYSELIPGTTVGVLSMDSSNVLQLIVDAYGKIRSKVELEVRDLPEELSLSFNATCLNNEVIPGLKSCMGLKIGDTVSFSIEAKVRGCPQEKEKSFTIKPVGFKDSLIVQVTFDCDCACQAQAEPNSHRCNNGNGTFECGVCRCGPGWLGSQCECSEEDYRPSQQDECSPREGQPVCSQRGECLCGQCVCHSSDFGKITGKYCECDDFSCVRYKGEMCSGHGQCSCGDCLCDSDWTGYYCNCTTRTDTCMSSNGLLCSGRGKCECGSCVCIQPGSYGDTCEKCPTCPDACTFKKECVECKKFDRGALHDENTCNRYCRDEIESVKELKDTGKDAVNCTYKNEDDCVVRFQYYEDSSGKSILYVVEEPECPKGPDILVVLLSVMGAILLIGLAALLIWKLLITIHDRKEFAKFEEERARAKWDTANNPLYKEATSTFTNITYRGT
T1 sequence (P08514 32-887 limits assumed): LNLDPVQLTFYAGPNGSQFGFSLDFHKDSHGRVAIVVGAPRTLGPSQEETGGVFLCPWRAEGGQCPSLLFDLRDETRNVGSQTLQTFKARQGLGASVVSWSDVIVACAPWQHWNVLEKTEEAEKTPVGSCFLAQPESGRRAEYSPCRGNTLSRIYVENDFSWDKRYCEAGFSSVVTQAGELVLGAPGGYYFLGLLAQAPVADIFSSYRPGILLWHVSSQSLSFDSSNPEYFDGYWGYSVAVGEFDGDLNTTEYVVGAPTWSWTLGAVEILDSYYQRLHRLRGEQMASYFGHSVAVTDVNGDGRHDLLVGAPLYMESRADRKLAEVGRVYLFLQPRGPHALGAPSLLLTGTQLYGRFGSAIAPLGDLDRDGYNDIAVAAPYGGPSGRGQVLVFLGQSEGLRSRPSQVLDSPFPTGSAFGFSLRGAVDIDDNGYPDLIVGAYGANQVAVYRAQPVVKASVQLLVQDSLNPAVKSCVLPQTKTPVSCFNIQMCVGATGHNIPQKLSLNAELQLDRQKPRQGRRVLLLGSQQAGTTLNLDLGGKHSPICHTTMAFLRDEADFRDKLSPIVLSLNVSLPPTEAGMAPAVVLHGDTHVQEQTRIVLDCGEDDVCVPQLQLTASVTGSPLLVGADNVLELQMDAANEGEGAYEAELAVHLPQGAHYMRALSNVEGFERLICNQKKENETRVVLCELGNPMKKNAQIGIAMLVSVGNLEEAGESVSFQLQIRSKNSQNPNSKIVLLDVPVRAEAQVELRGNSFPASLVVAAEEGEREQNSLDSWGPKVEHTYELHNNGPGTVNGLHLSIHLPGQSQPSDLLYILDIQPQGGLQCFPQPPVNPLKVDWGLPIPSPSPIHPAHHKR
T1 sequence (P08514 891-1039 limits assumed): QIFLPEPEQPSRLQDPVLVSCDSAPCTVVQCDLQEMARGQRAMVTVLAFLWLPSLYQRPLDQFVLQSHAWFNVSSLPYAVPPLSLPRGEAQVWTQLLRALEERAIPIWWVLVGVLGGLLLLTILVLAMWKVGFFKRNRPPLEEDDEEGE

On to `CCN(CC)CCCNC(=O)c1cnn(-c2nc(-c3cccc(C(F)(F)F)c3)c(Br)s2)c1C(F)(F)F` [1-[5-Bromo-4-(3-trifluoromethyl-phenyl)-thiazol-2-yl]-5-trifluoromethyl-1H-pyrazole-4-carboxylic acid (3-diethylamino-propyl)-amide], for which the results for the 50% inhibitory concentration (IC50) in test [1] and in test [2] were 2.1 µM and 3.5 µM, respectively. On the same counts, the results for `CC(=O)Oc1ccccc1C(=O)O` [2-(acetyloxy)benzoic acid] are 5 µM and > 100 µM.

With `NCCNC(=O)c1cnn(-c2nc(-c3cccc(C(F)(F)F)c3)cs2)c1C(F)(F)F` [5-Trifluoromethyl-1-[4-(3-trifluoromethyl-phenyl)-thiazol-2-yl]-1H-pyrazole-4-carboxylic acid (2-amino-ethyl)-amide; hydrochloride], inhibition in test [3] was half-maximal at 11.2 µM (IC50). As for `NCCCNC(=O)c1cnn(-c2nc(-c3cccc(C(F)(F)F)c3)cs2)c1C(F)(F)F` [5-Trifluoromethyl-1-[4-(3-trifluoromethyl-phenyl)-thiazol-2-yl]-1H-pyrazole-4-carboxylic acid (3-amino-propyl)-amide; hydrochloride], the figures for the IC50 in test [1] and in test [2] were 3.7 µM and 3 µM, respectively. On the same counts, the results for `CCN(CC)CCCNC(=O)c1cnn(-c2nc(-c3cccc(C(F)(F)F)c3)cs2)c1C(F)(F)F` [5-Trifluoromethyl-1-[4-(3-trifluoromethyl-phenyl)-thiazol-2-yl]-1H-pyrazole-4-carboxylic acid (3-diethylamino-propyl)-amide] are 0.4 µM and 2.5 µM. On the same counts, the results for `O=C(NCCCN1CCCCC1)c1cnn(-c2nc(-c3cccc(C(F)(F)F)c3)cs2)c1C(F)(F)F` [5-Trifluoromethyl-1-[4-(3-trifluoromethyl-phenyl)-thiazol-2-yl]-1H-pyrazole-4-carboxylic acid (3-piperidin-1-yl-propyl)-amide] are 12 µM and 3 µM. The matching figures for `CCCNCCCNC(=O)c1cnn(-c2nc(-c3cccc(C(F)(F)F)c3)cs2)c1C(F)(F)F` [5-Trifluoromethyl-1-[4-(3-trifluoromethyl-phenyl)-thiazol-2-yl]-1H-pyrazole-4-carboxylic acid (3-propylamino-propyl)-amide]: 4.1 µM and 3.5 µM. `NCCCCNC(=O)c1cnn(-c2nc(-c3cccc(C(F)(F)F)c3)cs2)c1C(F)(F)F` [5-Trifluoromethyl-1-[4-(3-trifluoromethyl-phenyl)-thiazol-2-yl]-1H-pyrazole-4-carboxylic acid (4-amino-butyl)-amide; hydrochloride]: the concentration for half-maximal inhibition (IC50) in test [1] worked out at 4.5 µM; in test [2], 0.1 µM.

Take `COc1ccc(CCNC(=O)C(CC(=O)O)NC(=O)CCCCCCCNC(=N)N)cc1` (stereo unspecified) [SC-47643]: in test [1], half-maximal inhibition (IC50) required 2.4 µM.
